In patent US20020133846A1, “Method for protecting plants” (priority 1996, published 2002):
Like-named read-outs stand apart in the source and are kept apart here.

Assays:
[1] = tested on: Colletotrichum lagenarium; assay: Action against Colletotrichum lagenarium on Cucumis sativus L., soil application; type: in vivo
Cercospora nicotianae = assay: Action against Cercospora nicotianae on tobacco plants; type: in vivo
Pyricularia oryzae [2] = type: in vivo; settings: Table 13, comp. I alone 6 ppm
Pyricularia oryzae [3] = type: in vivo
Pyricularia oryzae [4] = type: in vivo; remark: listed apart in the source
Colletotrichum sp. = assay: Action against Colletotrichum sp. (anthracnose) on chili, field; type: in vivo; settings: Table 16, chili fruits after fifth spraying, comp. I alone 5 ppm
Source text: Effects on crop yield: In a plot of land about 10 m^2 (test location: Cikampek, Java, Indonesia), chili plants were sprayed a total of 7 times at intervals of about 7 days with 500-700 liters of spray mixture per hectare. Three days after the first spraying, the plants were infected artificially with the fungus.

Cercospora sp. = assay: Action against Cercospora sp. (leaf spot) on chili, field; type: in vivo; settings: Table 17, leaves after sixth spraying, comp. I alone 5 ppm
[5] = Action on crop yield of chili, field; type: in vivo; settings: Table 18, harvest after sixth spraying, comp. I alone 5 ppm
Phytophthora infestans = type: in vivo
[6] = tested on: Peronospora parasitica NoCo2; assay: Action against Peronospora parasitica NoCo2 in Arabidopsis thaliana (Col-0), rRNA fungal probe; type: in vivo; settings: Table 29, Col-0, BTH alone 0.01 mM
[7] = tested on: Peronospora parasitica Emwa; assay: Action against Peronospora parasitica Emwa in Arabidopsis thaliana (Ws), rRNA fungal probe; type: in vivo; settings: Hyaloperonospora parasitica, in Arabidopsis thaliana; for inhibition at 10 µM: BTH alone 0.01 mM
[8] = tested on: Peronospora parasitica NoCo2; assay: whole plant or invertebrate; type: in vivo; settings: Hyaloperonospora parasitica, in Arabidopsis thaliana
PR-1 gene expression = assay: Northern analysis of PR-1 gene expression after BTH treatment, Ws and NIM1-overexpressing lines; type: in vivo, Arabidopsis thaliana; settings: for PR-1 gene expression: 10 μM BTH
[9] = tested on: Peronospora parasitica isolate Emwa; assay: Fungal resistance to Peronospora parasitica Emwa after BTH treatment, Ws and NIM1-overexpressing lines; type: in vivo; settings: 10 μM BTH
Puccinia recondita = assay: Action against Puccinia recondita in wheat; settings: Table 19, comp. I alone 100 mg a.i. per liter
Experimental: 7-day-old wheat plants were sprayed to drip point with a spray mixture prepared from a formulated active ingredient, or combination of active ingredients. After 4 days, the treated plants were infected with a conidia suspension of the fungus, and the treated plants were subsequently incubated for 2 days at a relative atmospheric humidity of 90-100% and 20 C. 10 days post-infection, the fungus infestation was assessed.

Mycosphaerella fijiensis = assay: Action against Mycosphaerella fijiensis in bananas; settings: Table 23, comp. I alone 50 g a.i. per ha
Experimental: 40 banana plants in a 300 m^2 plot were sprayed at 17-19 day intervals with a spray mixture prepared with the wettable powder of the active ingredient; in total 6 times. Infection was naturally. For evaluation, the leaf infested with the fungus was measured.

Peronospora tabacina = assay: Action against Peronospora tabacina on tobacco plants
Experimental: Tobacco plants (6 weeks old) were sprayed with a formulated solution of the test compound. Four days after treatment, the plants were inoculated with a sporangia suspension of the fungus, kept at high humidity for 4 to 5 days and then incubated further under a normal day/night sequence. Evaluation of the symptoms in the tests was based on the leaf surface infested with fungus. The infestation of the untreated plants corresponded to 0 % action.

Erysiphe graminis [10] = assay: Action against Erysiphe graminis in wheat, field trials
Experimental: In field trials (10 m^2), winter wheat in the growth phase was sprayed with a spray mixture prepared with a wettable powder of the active ingredient. Infection was naturally. 10 days post-infection, the fungus infestation was assessed.

Alternaria solani = assay: Action against Alternaria solani in tomatoes in the open; settings: Table 24, comp. I alone 2.5 g a.i. per ha
Experimental: Tomato plants on a 7 m^2 plot were sprayed at 7-day intervals with a spray mixture prepared wettable powder of the active ingredient; in total 9 times. Infection was naturally. For ion, the leaf infested with the fungus was measured.

Erysiphe graminis [11] = assay: Action against Erysiphe graminis on barley (residual-protective / systemic)
Experimental: Residual-protective action: Barley plants about 8 cm in height were sprayed to drip point with an aqueous spray mixture (max. 0.02 % active ingredient) and were dusted 3 to 4 days later with conidia of the fungus. The infected plants were stood in a greenhouse at 22°. Fungus infestation was generally evaluated 10 days after infection.
Systemic action: Barley plants about 8 cm in height were watered with an aqueous spray mixture (max. 0.002 % active ingredient, based on the volume of the soil). […] The plants were dusted with conidia of the fungus 3 to 4 days later. The infected plants were stood in a greenhouse at 22°. Fungus infestation was generally evaluated 10 days after infection.

[12] = tested on: Peronospora parasitica (NoCo2); assay: Resistance to Peronospora parasitica (NoCo2) in Arabidopsis, Example 17; type: in vivo; settings: wild type Col-0 plants treated with INA 0.25 mg/ml, seven days after inoculation
[13] = tested on: Pseudomonas syringae DC3000; assay: Infection with Pseudomonas syringae DC3000 in Arabidopsis, Example 17; settings: wild-type plants pretreated with INA (0.25 mg/ml)
Experimental: Six-week-old wild-type (±INA treatment), and cim3 plants were inoculated with a suspension of P. syringae DC3000 and the progress of the disease was followed by monitoring the growth of the bacteria extracted from infected leaves over time. […] The plants were also visually inspected for disease symptoms.
For this example, cultures of Pseudomonas syringae pv. tomato strain DC3000 were grown on King's B media (agar plates or liquid) plus rifampicin (50 jig/ml) at 28° C. […] An overnight culture was diluted and resuspended in 10 mM MgCT2 to a density of 2-5×10^5 cells per ml and injected into Arabidopsis leaves. Injections were carried out by creating a small hole with a 28 gauge needle midway up the leaf and then injecting approximately 250 μl of the diluted bacterial solution with a 1 cc syringe. At various time points, 10 random samples consisting of 3 random leaf punches from a #1 cork borer were taken from 10 plants from each treatment. The 3 leaf punches were placed in an eppendorf tube with 300 μl of 10 MM MgCl2 and ground with a pestle. The resulting bacterial suspension was appropriately diluted and plated on King's B media plus rifampicin (50 μg/ml) and grown for 4 days at 28° C. Bacterial colonies were counted and the data were subjected to Student's t statistical analysis (Sokal and Rohlf (1981), Biometry, 2nd ed. New York: W.H. Freeman and Company). […]

## CSC(=O)c1cccc2nnsc12 [BTH]
[1]; Table 8, comp. I alone 0.02 ppm
  % action O (observed): 6%
[1]; Table 8, comp. I alone 0.2 ppm
  % action O (observed): 36%
[1]; Table 8, test 1, comp. I alone 0.06 ppm
  % action O (observed): 0%
[1]; Table 8, test 3, comp. I alone 0.06 ppm
  % action O (observed): 23%
Cercospora nicotianae; Table 9, comp. I alone 0.2 ppm
  % action O (observed): 0%
Cercospora nicotianae; Table 9, comp. I alone 2 ppm
  % action O (observed): 17%
Cercospora nicotianae; Table 9, comp. I alone 6 ppm
  % action O (observed): 55%
Cercospora nicotianae; Table 9, comp. I alone 20 ppm
  % action O (observed): 78%
Cercospora nicotianae; Table 10, comp. I alone 0.2 ppm
  % action O (observed): 0%
Cercospora nicotianae; Table 10, comp. I alone 2 ppm
  % action O (observed): 17%
Cercospora nicotianae; Table 10, comp. I alone 6 ppm
  % action O (observed): 55%
Cercospora nicotianae; Table 10, comp. I alone 20 ppm
  % action O (observed): 78%
Pyricularia oryzae [2]
  % action O (observed): 15%
Pyricularia oryzae [3]; Table 14, comp. I alone 0.25 kg a.i. per ha
  % action O (observed): 22%
Pyricularia oryzae [3]; Table 14, comp. I alone 0.5 kg a.i. per ha
  % action O (observed): 50%
Pyricularia oryzae [4]; Table 15, comp. I alone 0.05 ppm
  % action O (observed): 5%
Pyricularia oryzae [4]; Table 15, comp. I alone 0.1 ppm
  % action O (observed): 18%
Pyricularia oryzae [4]; Table 15, comp. I alone 0.25 ppm
  % action O (observed): 39%
Pyricularia oryzae [4]; Table 15, comp. I alone 0.5 ppm
  % action O (observed): 65%
Colletotrichum sp.
  % action O (observed): 55%
Cercospora sp.
  % action O (observed): 76%
[5]
  Crop yield in kg per hectare O (observed): 459 kg per hectare
Phytophthora infestans; Table 25, comp. I alone 5 mg a.i. per liter
  % action O (observed): 14%
Phytophthora infestans; Table 25, comp. I alone 25 mg a.i. per liter
  % action O (observed): 36%
Phytophthora infestans; Table 25, comp. I alone 100 mg a.i. per liter
  % action O (observed): 61%
Phytophthora infestans; Table 25, comp. I alone 500 mg a.i. per liter
  % action O (observed): 72%
[6]; Hyaloperonospora parasitica, in Arabidopsis thaliana, read-out: Fungal Growth Inhibition % O (observed)
  inhibition at 10 µM: 0%
[6]
  Fungal Growth Inhibition % O (observed): no fungal growth inhibition
[7]; Table 30, Ws, BTH alone 0.003 mM, read-out: Fungal Growth Inhibition % O (observed)
  inhibition at 3 µM: 0%
[7]; Table 30, Ws, read-out: Fungal Growth Inhibition % O (observed)
  inhibition at 10 µM: 20%
[7]; Table 31, Ws, read-out: Fungal Growth Inhibition % O (observed)
  inhibition at 10 µM: 30%
[7]; Table 32, Ws, read-out: Fungal Growth Inhibition % O (observed)
  inhibition at 10 µM: 30%
[7]; text summary of Tables 30-32, Ws plants, read-out: fungal growth inhibition
  inhibition at 10 µM: 20 to 30%
[8]; read-out: Fungal Growth Inhibition % O (observed), Table 34, wt Col-0, BTH 0.03 mM
  inhibition at 30 µM: 20.8%
[8]; read-out: Fungal Growth Inhibition % O (observed), Table 34, wt Col-0, BTH 0.1 mM
  inhibition at 100 µM: 85.7%
PR-1 gene expression; NIM1-overexpressing lines relative to wild-type, 100 μM BTH
  PR-1 gene expression in leaf tissue: much stronger and quicker
PR-1 gene expression; NIM1-overexpressing lines
  PR-1 gene expression: much stronger response
PR-1 gene expression; wild-type Ws line
  PR-1 gene expression: barely detectable
[9]; NIM1-overexpressing lines
  resistance to P. parasitica: complete or almost complete resistance
[9]; wild-type Ws plants
  susceptibility to P. parasitica (Emwa): still susceptible
Puccinia recondita
  % action O (observed): 51%
Mycosphaerella fijiensis
  % action O (observed): 19%
Peronospora tabacina; Table 28, comp. I alone 0.03 ppm
  % action O (observed): 14%
Peronospora tabacina; Table 28, comp. I alone 0.1 ppm
  % action O (observed): 34%
Peronospora tabacina; Table 28, comp. I alone 0.3 ppm
  % action O (observed): 88%
Erysiphe graminis [10]; Table 21, comp. I alone 5 g a.i. per ha
  % action O (observed): 29%
Erysiphe graminis [10]; Table 22, comp. I alone 5 g a.i. per ha
  % action O (observed): 29%
Alternaria solani
  % action O (observed): 32%
Erysiphe graminis [11]; Table 3, comp. I alone 0.6 ppm
  % action O (observed): 14%
Erysiphe graminis [11]; Table 3, comp. I alone 2 ppm
  % action O (observed): 33%

## O=C(O)c1cc(Cl)nc(Cl)c1 [INA, 2,6-dichloroisonicotinic acid]
[12]
  fungal growth (trypan blue, sporulation): no fungal growth
[13]
  disease symptoms (visual inspection): nearly devoid of disease symptoms
